Source: patent publication US20240368174A1, “Antiviral Heterocyclic Compounds” (Enanta Pharmaceuticals, Inc., priority 2023, published 2024)
pEC50: −log10 of the molar value.

Key:
[1] = system: HMPV clinical isolate A2 strain TN 94-49; experiment: HMPV antiviral assay, Method 1 (LLC-MK2 cells, ATP-Lite); format: cell-based; conditions: human metapneumovirus, hMPV A2 TN/94-49, LLC-MK2 cells
Procedure: In vitro HMPV antiviral activity was evaluated using the clinical isolate A2 strain TN 94-49 (obtained from Dr. John Williams, Vanderbilt University, Tennessee) and LLC-MK2 cells (ATCC #CCL-7), an immortalized kidney epithelial cell line from Macaca mulatta. Compounds were resuspended in dimethyl sulfoxide (DMSO) at 10 mM, serially diluted and added to a 384-well source plate. Subsequently, the compounds were diluted and transferred onto 384-well assay plates using the Echo-650 automated liquid handling system (Beckman Coulter, Indiana). The test compounds were assessed in duplicate at a top concentration of 2 μM followed by 2.5-fold serial dilutions to give a total of 10 concentration points. DMSO control wells were also included on the assay plates and were either infected or not, acting as positive and negative controls. A2 TN 94-49 virus infections were performed in-suspension with LLC-MK2 cells. The cells were washed twice with PBS and removed from the cell-culture flask with 0.25% trypsin-EDTA (Thermo Fisher Scientific, MA). The trypsin-EDTA was inactivated by resuspending in 2% fetal bovine serum (FBS) and OptiMEM (ThermoFisher Scientific, MA) containing 1% penicillin-streptomycin. Cells were pelleted by centrifuging for 5 minutes at 800 rpm, the supernatant was removed, and cells were re-suspended and washed in PBS plus 100 μg/mL CaCl2). This step was performed twice. Cells were then re-suspended in serum-free (SF)-OptiMEM containing 4 μg/mL TPCK-Trypsin (Sigma Aldrich, MO), 1% penicillin-streptomycin (ThermoFisher Scientific, MA) and 100 μg/mL CaCl2). Cells were counted and seeded at a density of 5,000 cells/well, 12.5 μL/well. Virus infections were done at a multiplicity of infection (MOI) of 0.005 with 12.5 μL added per well. Virus infections were performed in infection media which contained SF-OptiMEM, 100 μg/mL CaCl2) and 1% penicillin-streptomycin. HMPV viral stocks are suspended in infection media+5% glycerol, thus an equal volume of infection media+5% glycerol was added to uninfected wells to equalize the final % glycerol across all wells of the assay plate. The final concentration of TPCK-trypsin was 2 μg/mL. The assay plates were incubated at 37° C., 5% CO2 for 7 days. After 7 days incubation, 12.5 μL of ATP-Lite (PerkinElmer, MA) was added to each well and the raw luminescence values were determined using the Envision 2104 (Perkin Elmer, MA). The average of the raw luminescence values for the cells and virus only positive control wells was subtracted from all conditions tested and the percent cell health was determined by dividing these values by the average of the cells only negative control wells. EC50 values were then calculated by non-linear regression using a four-parameter curve logistic equation. The curve fit model employed was XLFit Dose Response One Site Model 200: y=(A+(B/(1+((x/C)^D)))), where A is the minimum y value, B is the maximum y value, C is the log EC50 value, and D is the slope factor.

[2] = system: HMPV clinical isolate A2 strain TN 94-49; experiment: HMPV antiviral assay, Method 2 (LLC-MK2 cells with CP-100-356, ATP-Lite); format: cell-based; conditions: human metapneumovirus, 168 h; hMPV A2 TN/94-49, LLC-MK2 cells with 4 μM CP-100-356, 7 days, ATP-Lite
Outline: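 EC50 comes from a four-parameter fit of percent cell viability (ATP-Lite, normalized to virus-only and cell-only wells) after 7 days at 37 °C. Infection used HMPV A2 TN 94-49 at MOI 0.16 in LLC-MK2 cells, with 2 μM P-gp inhibitor CP-100-356 and 2 μg/mL TPCK-trypsin final; dose range 200 nM top, 2.5-fold, 10 points, duplicate.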

## COc1cc(C(=O)NC[C@](O)(c2cc3c(c(-c4cc(Cl)c(F)cc4F)n2)OC[C@]3(C)C(N)=O)C2CC2)cc2cc(C(F)(F)F)cnc12 [Example 1]
[1]
  pEC50: < 6.30

## C[C@]1(C(N)=O)COc2c1cc([C@@](O)(CNC(=O)c1cc(OC3CC3)c3nn(C4CC4)cc3c1)C1CC1)nc2-c1cc(Cl)c(F)cc1F [Example 2]
[1]
  pEC50: > 6.30

## C[C@]1(C(N)=O)COc2c1cc([C@@](O)(CNC(=O)c1cc(OC(F)F)c3nn(C4CC4)cc3c1)C1CC1)nc2-c1cc(F)c(F)cc1F [Example 6]
[1]
  pEC50: > 6.30

## [2H]C([2H])([2H])c1nc2c(OC)cc(C(=O)NC[C@](O)(c3cc4c(c(-c5cc(F)c(F)cc5F)n3)OC[C@]4(C)C(N)=O)C3CC3)cc2cc1Br [Example 7]
[1]
  pEC50: > 6.30

## [2H]C([2H])([2H])c1nc2c(OC)cc(C(=O)NC[C@@](O)(c3ccccc3)c3cc4c(c(-c5ccc6c(c5)OC(F)(F)O6)n3)OC[C@]4(C)C(N)=O)cc2s1 [Example 9]
[1]
  pEC50: > 6.30

## [2H]C([2H])([2H])c1nc2c(OC)cc(C(=O)NC[C@](O)(c3cc4c(c(-c5cc(Cl)c(F)cc5F)n3)OC[C@]4(C)C(N)=O)C3CC3)cc2s1 [Example 10]
[1]
  pEC50: > 6.30

## [2H]C([2H])([2H])c1nc2c(OC(F)F)cc(C(=O)NC[C@](O)(c3cc4c(c(-c5cc(Cl)c(F)cc5F)n3)OC[C@]4(C)C(N)=O)C3CC3)cc2cc1Br [Example 11]
[1]
  pEC50: < 6.30

## COc1cc(C(=O)NC[C@@](O)(c2ccc(F)cc2)c2cc3c(c(-c4cc(Cl)c(F)cc4F)n2)OC[C@]3(C)C(N)=O)cc2cn(C(F)F)nc12 [Example 13]
[1]
  pEC50: > 6.30

## [2H]C([2H])([2H])c1nc2c(OC)cc(C(=O)NC[C@@](O)(c3ccc(F)cc3)c3cc4c(c(-c5cc(Cl)c(F)cc5F)n3)OC[C@]4(C)C(N)=O)cc2s1 [Example 16]
[1]
  pEC50: > 6.30

## COc1cc(C(=O)NC[C@@](O)(c2ccc(F)cc2)c2cc3c(c(-c4cc(Cl)c(F)cc4F)n2)OC[C@]3(C)C(N)=O)cc2cc(Cl)c(C)nc12 [Example 17]
[1]
  pEC50: > 6.30

## [2H]C([2H])([2H])c1cc2cc(C(=O)NC[C@](O)(c3cc4c(c(-c5ccc(F)c(Cl)c5)n3)OC[C@]4(C)C(N)=O)C(F)(F)F)cc(OC)c2nc1C [Example 20]
[1]
  pEC50: < 6.30

## [2H]C([2H])([2H])c1nc2c(OC)cc(C(=O)NC[C@](O)(c3cc4c(c(-c5ccc(F)c(Cl)c5Cl)n3)OC[C@]4(C)C(N)=O)C3CC3)cc2cc1Br [Example 24]
[1]
  pEC50: > 6.30

## COc1cc(C(=O)NC[C@@](O)(c2ccc(F)cc2)c2cc3c(c(-c4ccc5c(c4Cl)OC(F)(F)O5)n2)OC[C@]3(C)C(N)=O)cc2cc(C(F)(F)F)cnc12 [Example 26]
[1]
  pEC50: < 6.30

## [2H]C([2H])([2H])c1nc2c(OC)cc(C(=O)NC[C@@](O)(c3ccc(F)cc3)c3cc4c(c(-c5ccc6c(c5Cl)OC(F)(F)O6)n3)OC[C@]4(C)C(N)=O)cc2s1 [Example 27]
[1]
  pEC50: > 6.30

## [2H]C([2H])([2H])c1cc2cc(C(=O)NC[C@](O)(c3cc4c(c(-c5cc(F)c(F)cc5F)n3)OC[C@]4(C)C(N)=O)C3CC3)cc(OC)c2nc1C([2H])([2H])[2H] [Example 28]
[1]
  pEC50: > 6.30

## [2H]C([2H])([2H])c1cc2cc(C(=O)NC[C@](O)(c3cc4c(c(-c5cc(Cl)c(F)cc5F)n3)OC[C@]4(C)C(N)=O)C3CC3)cc(OC)c2nc1C([2H])([2H])[2H] [Example 29]
[1]
  pEC50: > 6.30

## COc1nccc(-c2nc([C@@](O)(CNC(=O)c3cc(OC4CC4)c4nn(C5(F)CC5)cc4c3)C(C)C)cc3c2OC[C@]3(C)C(N)=O)c1Cl [Example 892]
[2]
  pEC50: > 6.70

## COc1nccc(-c2nc([C@@](O)(CNC(=O)c3cc(OC4CC4)c4nn(C5CC5)cc4c3)C(C)C)cc3c2OC[C@]3(C)C(N)=O)c1Cl [Example 893]
[2]
  pEC50: > 6.70

## COc1nccc(-c2nc([C@@](O)(CNC(=O)c3cc(OC4CC4)c4nn(C(F)F)cc4c3)C(C)C)cc3c2OC[C@]3(C)C(N)=O)c1Cl [Example 894]
[2]
  pEC50: < 6.70

## COc1nccc(-c2nc([C@@](O)(CNC(=O)c3cc(OC)c4nn(C5(F)CC5)cc4c3)C3CC(F)(F)C3)cc3c2OC[C@]3(C)C(N)=O)c1Cl [Example 896]
[2]
  pEC50: > 6.70

## COc1nccc(-c2nc([C@@](O)(CNC(=O)c3cc(OC)c4nc(C5CC5)oc4c3)C3CC(F)(F)C3)cc3c2OC[C@]3(C)C(N)=O)c1Cl [Example 897]
[2]
  pEC50: < 6.70

## COc1nccc(-c2nc([C@@](O)(CNC(=O)c3cc(OC4CC4)c4nn(C(F)F)cc4c3)C3CC(F)(F)C3)cc3c2OC[C@]3(C)C(N)=O)c1Cl [Example 898]
[2]
  pEC50: < 6.70

## COc1cc(C(=O)NC[C@](O)(c2cc3c(c(-n4ncc5c(F)cccc54)n2)OC[C@]3(C)C(N)=O)C2CC2)cc2cc(Cl)c(C)nc12 [Example 899]
[2]
  pEC50: < 6.70

## COc1cc(-c2nc([C@@](O)(CNC(=O)c3cc(OC4CC4)c4nn(C5CC5)cc4c3)c3ccccc3)cc3c2OC[C@]3(C)C(N)=O)c(F)cn1 [Example 900]
[2]
  pEC50: < 6.70

## COc1nccc(-c2nc([C@@](O)(CNC(=O)c3cc(OC4CC4)c4nn(C(F)F)cc4c3)c3ccccc3)cc3c2OC[C@]3(C)C(N)=O)c1Cl [Example 901]
[2]
  pEC50: > 6.70

## COc1nccc(-c2nc([C@@](O)(CNC(=O)c3cc(OC4CC4)c4nn(C(F)F)cc4c3)c3cccc(F)c3)cc3c2OC[C@]3(C)C(N)=O)c1Cl [Example 902]
[2]
  pEC50: < 6.70

## COc1cc(C(=O)NC[C@](O)(c2cc3c(c(-c4ccnc(C5CCOCC5)c4Cl)n2)OC[C@]3(C)C(N)=O)C2CC2)cc2cn(C3CC3)nc12 [Example 903]
[2]
  pEC50: < 6.70

## COc1cc(C(=O)NC[C@](O)(c2cc3c(c(-c4ccnc(C5CCOCC5)c4Cl)n2)OC[C@]3(C)C(N)=O)C2CC2)cc2cn(C(F)F)nc12 [Example 904]
[2]
  pEC50: < 6.70

## COc1cc(C(=O)NC[C@](O)(c2cc3c(c(-c4ccnc(C5CCOCC5)c4Cl)n2)OC[C@]3(C)C(N)=O)C2CC2)cc2cn(C3(F)CC3)nc12 [Example 905]
[2]
  pEC50: < 6.70

## COc1cc(C(=O)NC[C@](O)(c2cc3c(c(-c4ccnc(C5CCOCC5)c4Cl)n2)OC[C@]3(C)C(N)=O)C2CC2)cc2oc(C3CC3)nc12 [Example 906]
[2]
  pEC50: < 6.70

## COc1cc(C(=O)NC[C@](O)(c2cc3c(c(-c4ccnc(C(C)C)c4Cl)n2)OC[C@]3(C)C(N)=O)C2CC2)cc2cn(C(F)F)nc12 [Example 907]
[2]
  pEC50: < 6.70

## COc1cc(C(=O)NC[C@](O)(c2cc3c(c(-c4ccnc(C(C)C)c4Cl)n2)OC[C@]3(C)C(N)=O)C2CC2)cc2cn(C3(F)CC3)nc12 [Example 908]
[2]
  pEC50: < 6.70

## COc1cc(C(=O)NC[C@](O)(c2cc3c(c(-c4ccnc(C(C)C)c4Cl)n2)OC[C@]3(C)C(N)=O)C2CC2)cc2oc(C3CC3)nc12 [Example 909]
[2]
  pEC50: < 6.70

## COc1cc(C(=O)NC[C@](O)(c2cc3c(c(-c4ccnc(C(C)C)c4Cl)n2)OC[C@]3(C)C(N)=O)C2CC2)cc2cc(C3CC3)nn12 [Example 910]
[2]
  pEC50: < 6.70

## COc1cc(C(=O)NC[C@](O)(c2cc3c(c(-c4ccnc(C(C)C)c4Cl)n2)OC[C@]3(C)C(N)=O)C2CC2)cn2cc(C3CC3)nc12 [Example 911]
[2]
  pEC50: < 6.70

## CC(C)c1nccc(-c2nc([C@@](O)(CNC(=O)c3cc(OC4CC4)c4nn(C5(F)CC5)cc4c3)C3CC3)cc3c2OC[C@]3(C)C(N)=O)c1Cl [Example 912]
[2]
  pEC50: < 6.70

## CC(C)c1nccc(-c2nc([C@@](O)(CNC(=O)c3cc(OC4CC4)c4nn(C5CC5)cc4c3)C3CC3)cc3c2OC[C@]3(C)C(N)=O)c1Cl [Example 913]
[2]
  pEC50: < 6.70

## CC(C)c1nccc(-c2nc([C@@](O)(CNC(=O)c3cc(OC4CC4)c4nn(C(F)F)cc4c3)C3CC3)cc3c2OC[C@]3(C)C(N)=O)c1Cl [Example 914]
[2]
  pEC50: < 6.70
